Data published in patent publication US9932297B2, “Alkynes and methods of reacting alkynes with 1,3-dipole-functional compounds” (UNIVERSITY OF GEORGIA RESEARCH FOUNDATION, INC., priority 2007, dated 2018).

Key:
[1] = Cycloaddition with benzyl azide, second-order rate constant by 1H NMR; format: physicochemical; conditions: for second-order rate constant: NMR
Experimental: However, upon exposure to azides a fast reaction took place and gave the corresponding triazoles in high yield. For example, triazoles 10-13 were obtained in quantitative yields as mixtures of regioisomers by reaction of the corresponding azido-containing sugar and amino acid derivatives with 3 in methanol for 30 minutes (Scheme 2; FIG. 3 and FIG. 4). The progress of the reaction of 3 with benzyl azide in methanol and in a mixture of water/acetonitrile (1:4 v/v) was monitored by NMR spectroscopy by integration of the benzylic proton signals, and second-order rate constants of 0.17 and 2.3 m^−1s^−1, respectively, were determined.
A number of analogs (63-68) of 4-dibenzocyclooctynol (61) were prepared and the influence of these modifications on the reaction rate of the cycloaddition with benzyl azide was determined by integration of the benzylic proton signals in ^1H NMR spectrum.
General Method for Calculating Second Order Rate Constants by NMR.
Substrates were dissolved separately in the appropriate solvent and mixed 1:1 at 6 mM concentrations. Percent conversion was monitored both by disappearance of starting material and appearance of the two regioisomeric products as determined by integration at multiple chemical shifts. Second order rate constants for the reaction were determined by plotting the 1/[substrates] versus time and analysis by linear regression. Second order rate constants correspond to one half of the determined slope.

[2] = system: Jurkat cells bearing azides (Ac4ManNAz-treated); assay: Cell surface azide labeling and detection by fluorescence intensity (avidin-FITC); format: cell-based, Human
Experimental: FIG. 6 illustrates embodiments of cell-surface labeling with compounds 2 and 9. Jurkat cells grown for three days in the absence or presence of Ac4ManNAz (25 micromolar) were incubated a) with compounds 2 and 9 (30 micromolar) for 0-180 minutes or b) with compounds 2 and 9 (0-100 micromolar) for 1 hour at room temperature. Next, the cells were incubated with avidin-FITC for 15 minutes at 4° C., after which cell lysates were assessed for fluorescence intensity. Samples are indicated as follows: blank cells incubated with 2 (∘) or 9 (□), and Ac,ManNAz cells incubated with 2 (●) or 9 (▪).
Next, Jurkat cells were cultured in the presence of 25 micromolar N-azidoacetylmannosamine (Ac4ManNAz) for three days to metabolically introduce N-azidoacetylsialic acid (SiaNAz) moieties into glycoproteins (Luchansky and Bertozzi, Chem-BioChem 2004, 5:1706-1709). As a negative control, Jurkat cells were employed that were grown in the absence of Ac4ManNAz. The cells were exposed to a 30 micromolar solution of compound 9 for various time periods, and after washing, the cells were stained with avidin-fluorescein isothiocyanate (FITC) for 15 minutes at 4° C. The efficiency of the two-step cell-surface labeling was determined by measuring the fluorescence intensity of the cell lysates. […]

[3] = system: CHO cells bearing azides (Ac4ManNAz-treated); assay: Cell labeling and detection by fluorescence (confocal) microscopy; format: cell-based, Chinese hamster
Experimental: FIG. 8 illustrates fluorescence images for embodiments of cells labeled with compound 9 and avidin-Alexa Fluor 488. CHO cells grown for 3 days in the absence (d-f) or presence (a-c) of Ac4ManNAz (100 micromolar) were incubated with compound 9 (30 micromolar) for 1 hour at 4° C. (a, d) or room temperature (b, c, e, f). Next, cells were incubated with avidin-Alexa Fluor 488 for 15 minutes at 4° C. and, after washing, fixing, and staining for the nucleus with far-red-fluorescent dye TO-PRO, imaged (a, b, d, e) or after washing incubated for 1 hour at 37° C. before fixing, nucleus staining, and imaging (c, f).
Next, attention was focused on visualizing azido-containing glycoconjugates of living cells by confocal microscopy. Thus, adherent Chinese hamster ovary (CHO) cells were cultured in the presence of Ac4ManNAz (100 micromolar) for three days. The resulting cell-surface azido moieties were treated with 9 (30 micromolar) for 1 hour and then with avidin-AlexaFluor488 for 15 minutes at 4° C.
Cell-surface glycoconjugates are constantly recycled by endocytosis, and to monitor this process, metabolically labeled cells were reacted with 9 and avidin-AlexaFluor488 according to the standard protocol and incubated at 37° C. for 1 hour before examination by confocal microscopy.
Chinese hamster ovary (CHO) cells (Clone K1; ATCC) were cultured in Kaighn's modification of Ham's F-12 medium (F-12K) with L-glutamine (2 mM), adjusted to contain sodium bicarbonate (1.5 g L^−1) and supplemented with penicillin (100 u mL^−1)/streptomycin (100 micrograms mL^−1 and FBS (10%). Cells were maintained in a humid 5% CO2 atmosphere at 37° C. CHO cells were grown in the presence of Ac4ManNaz (100 micromolar final concentration) for 3 days to metabolically incorporate SiaNAz into their cell surface glycoproteins. CHO cells bearing azides and untreated control cells were then transferred to a glass coverslip and cultured for 36 hours in their original medium. […] The step size, based on the calculated optimum for each objective, was between 0.25 and 0.5 micrometers. […]

[4] = Solubility seen in the labeling experiment; format: physicochemical; conditions: no increase in labeling above 100 micromolar
Experimental: The concentration dependence of the cell-surface labeling was studied by incubation of cells with various concentrations of 2 and 9 followed by staining with avidin-FTIC (FIG. 6b).

[5] = Shelf life and reactivity towards nucleophiles; format: physicochemical
[6] = cycloaddition with benzyl azide

SMILES: C1#Cc2ccccc2CCc2ccccc21 [Compound 62, reference compound]
- times slower reaction than 4-dibenzocyclooctynol (61) [1, 6]: approximately 70 times

SMILES: O=C1Cc2ccccc2C#Cc2ccccc21 [Compound 67, 6H-11,12-didehydro-dibenzo[a,e]cyclooctatrien-5-one]
- reaction rate compared with 61 (in words) [1, 6]: slightly higher reaction rate than 1

SMILES: [Cl][Cu] [Cu^ICl, reference compound]
- cell death (Jurkat cells): approximately 98%

SMILES: O=C(CCCCC1SCC2NC(=O)NC21)NCCOCCOCCNC(=O)OC1Cc2ccccc2C#Cc2ccccc21 (stereo not drawn) [Compound 9, Carbonic acid 7,8-didehydro-1,2:5,6-dibenzocyclooctene-3-yl ester, 8′-biotinylamine-3′,6′-dioxaoctane 1′-amide]
- incubation time after which labeling was almost complete ([2]; 30 micromolar, room temperature, then avidin-FITC): 60 min
- concentration at which reliable fluorescent labeling was achieved ([2]; 1 hour at room temperature): 3 µM
- labeling efficiency at ambient temperature versus 4° C. ([3]; 30 micromolar, 1 hour): equally efficient when performed at either ambient temperature or 4 °C
- location of staining ([3]; 30 micromolar, 1 hour, then avidin-AlexaFluor488): staining was observed only at the surface
- internalization of labeled glycoproteins ([3]; after labeling, incubated at 37° C. for 1 hour): a significant quantity of labeled glycoproteins had been internalized into vesicular compartments
- solubility [4]: limited solubility
- effect on cell viability (Jurkat cells; two-step labeling, morphology and exclusion of trypan blue): no effect on cell viability

SMILES: OC1Cc2ccccc2C#Cc2ccccc21 (stereo not drawn) [Compound 3, 3-Hydroxy-7,8-didehydro-1,2:5,6-dibenzocyclooctene]
- rate constant compared with cyclooctyne 1 ([1]; acetonitrile/water): three orders of magnitude greater
- second-order rate constant ([1]; reaction with benzyl azide in methanol): 0.17 m^−1s^−1
- second-order rate constant ([1]; reaction with benzyl azide in water/acetonitrile (1:4 v/v)): 2.3 m^−1s^−1
- shelf life [5]: excellent, long shelf life
- reactivity with nucleophiles ([5]; thiols and amines): did not react with nucleophiles such as thiols and amines
